# Data as given in patent publication US10590056B2, “ERR modulators and uses thereof” (CITY OF HOPE, priority 2017, dated 2020).
# “Also recorded” adds a separate entry of the source.
# Experiments:
# human ERRα = target: T1, human ERRα (Homo sapiens, UniProt P11474); test: GAL4 DBD-ERRα LBD cotransfection luciferase reporter assay in CV-1 cells; type: cell-based; conditions: for IC50: CV-1 cells co-transfected with reporter and expression vectors, human ERRα LBD; for activity on ERRα, in words: cell-based screening; for effect on ERRα transcriptional activity: up to 3 μM
# T1 construct: expressed in transfected cells; host or cells: CV-1 cells, cytomegalovirus-driven expression vectors
# T1 sequence (P11474 193-421 limits assumed): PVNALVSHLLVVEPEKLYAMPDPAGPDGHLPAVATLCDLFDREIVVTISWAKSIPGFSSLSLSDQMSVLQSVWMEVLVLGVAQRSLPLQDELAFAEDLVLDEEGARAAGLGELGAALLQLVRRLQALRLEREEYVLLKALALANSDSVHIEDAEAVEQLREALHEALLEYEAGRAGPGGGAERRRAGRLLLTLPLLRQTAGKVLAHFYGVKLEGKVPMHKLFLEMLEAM
# Procedure: (§1) To assess the functional transcriptional activity of these compounds, cell-based assays using chimeric receptor Gal4 DNA-binding domain (DBD)-NR ligand binding domain cotransfection assay (LBDs of ERRα, ERRγ, and ERRβ) were performed. As an initial screen to determine the ERRγ and ERRβ inhibitory activity and selectivity, all compounds were evaluated for in vitro potency and selectivity by transfection testing, using CV-1 cells transfected with human and mouse ERRs. MH100×4 is a luciferase reporter with four copies of a GAL4 UASG response element, where GAL-I refers to the ligand-binding domain of the indicated receptor fused to the C-terminus of the GAL4 DNA-binding domain. Assays were performed using a Biomek automated workstation in which the genes for the nuclear receptor, as well as a plasmid containing a response element upstream of a luciferase cDNA, are transfected into CV-1 cells. Compounds were evaluated for their ability to inhibit human ERRs at 0.03, 0.1, 0.5, 1, 2.5, 3, and 10 μM test concentrations. […] Z-4-OHT used as a known ERRγ and ERRβ inverse agonist to compare the constitutive activity of unliganded ERRγ and ERRβ.
# (§2) Cell culture. CV-1 cells were grown in Dulbecco's modified Eagle's medium supplemented with 10% resin charcoalstripped fetal bovine serum, 50 U/ml penicillin G, and 50 μg/ml streptomycin sulfate (DMEM-FBS) at 37° C. in 5% CO2. One day prior to transfection, cells were plated to 50%-80% confluence using phenol red free DMEM-FBS. The adenoviral construct, Ad-GFP and Ad-ERRα have been described.^55 Propagation of recombinant adenovirus was performed in 293 cells as described.^11
# (§3) Cell based transactivation assays were performed in CV-1 cells as described.^49 ERR activity was assayed with a GAL4 reporter construct and fusion proteins containing the ligand binding domains of human ERRα, human ERRβ and mouse ERRγ linked to the DNA binding domain of yeast GAL4. Human ERα and ERβ were examined as full-length proteins using an estrogen receptor responsive reporter construct. Reporter constructs (300 ng/10^5 cells) and cytomegalovirus-driven expression vectors (20-50 ng/10^5 cells) were added as indicated along with CMX-β-gal (500 ng/10^5 cells) as an internal control. Cells were transiently transfected by Lipofectamine as described.^56 Cells were incubated with DNA complexed liposomes for 2 hours and subsequently treated for approximately 45 hr with phenol red free DMEM FBS containing the indicated compounds. After exposure to ligand, the cells were harvested and assayed for luciferase and β-galactosidase activity. […] Fold activation is reported.
# human ERRβ = target: T2, human ERRβ (Homo sapiens, UniProt O95718); test: GAL4 DBD-ERRβ LBD cotransfection luciferase reporter assay in CV-1 cells; type: cell-based; conditions: for identified as (inverse agonist class / selectivity): ERRα, ERRβ, ERRγ transactivation panel; for activity on ERRβ, in words: cell-based cotransfection assay
# T2 construct: expressed in transfected cells; host or cells: CV-1 cells, cytomegalovirus-driven expression vectors
# T2 sequence (O95718 208-432 limits assumed): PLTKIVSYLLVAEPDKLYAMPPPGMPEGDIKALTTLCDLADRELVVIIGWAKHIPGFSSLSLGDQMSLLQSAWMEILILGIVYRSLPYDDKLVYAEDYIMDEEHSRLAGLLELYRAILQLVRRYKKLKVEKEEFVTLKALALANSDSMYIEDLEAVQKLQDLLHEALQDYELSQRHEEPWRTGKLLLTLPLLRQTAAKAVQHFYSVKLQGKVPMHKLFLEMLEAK
# Procedure: as §1, §2, §3
# mouse ERRγ = target: T3, mouse ERRγ (Mus musculus, UniProt P62509); test: GAL4 DBD-ERRγ LBD cotransfection luciferase reporter assay in CV-1 cells; type: cell-based; conditions: for IC50: CV-1 cells co-transfected with reporter and expression vectors, mouse ERRγ LBD; for activity on ERRγ, in words: cell-based cotransfection assay, 1g, 1h: at the higher dose; for effect on ERRγ transcriptional activity: up to 3 μM
# T3 construct: expressed in transfected cells; host or cells: CV-1 cells, cytomegalovirus-driven expression vectors
# T3 sequence (P62509 233-457 limits assumed): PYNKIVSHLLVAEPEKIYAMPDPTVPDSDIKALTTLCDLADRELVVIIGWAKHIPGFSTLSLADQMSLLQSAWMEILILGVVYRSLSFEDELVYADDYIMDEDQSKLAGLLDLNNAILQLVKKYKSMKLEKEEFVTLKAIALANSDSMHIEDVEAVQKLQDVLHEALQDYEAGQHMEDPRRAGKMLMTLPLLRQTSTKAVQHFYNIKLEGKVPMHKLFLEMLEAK
# Procedure: as §1, §2, §3
# Human ERα = target: T4, Human ERα (Homo sapiens, UniProt P03372); test: Full-length ERα, estrogen receptor responsive reporter assay in CV-1 cells; type: cell-based; conditions: up to 3 μM
# T4 construct: Human ERα and ERβ were examined as full-length proteins using an estrogen receptor responsive reporter construct; expressed in transfected cells; host or cells: CV-1 cells, cytomegalovirus-driven expression vectors
# T4 sequence (P03372 1-595): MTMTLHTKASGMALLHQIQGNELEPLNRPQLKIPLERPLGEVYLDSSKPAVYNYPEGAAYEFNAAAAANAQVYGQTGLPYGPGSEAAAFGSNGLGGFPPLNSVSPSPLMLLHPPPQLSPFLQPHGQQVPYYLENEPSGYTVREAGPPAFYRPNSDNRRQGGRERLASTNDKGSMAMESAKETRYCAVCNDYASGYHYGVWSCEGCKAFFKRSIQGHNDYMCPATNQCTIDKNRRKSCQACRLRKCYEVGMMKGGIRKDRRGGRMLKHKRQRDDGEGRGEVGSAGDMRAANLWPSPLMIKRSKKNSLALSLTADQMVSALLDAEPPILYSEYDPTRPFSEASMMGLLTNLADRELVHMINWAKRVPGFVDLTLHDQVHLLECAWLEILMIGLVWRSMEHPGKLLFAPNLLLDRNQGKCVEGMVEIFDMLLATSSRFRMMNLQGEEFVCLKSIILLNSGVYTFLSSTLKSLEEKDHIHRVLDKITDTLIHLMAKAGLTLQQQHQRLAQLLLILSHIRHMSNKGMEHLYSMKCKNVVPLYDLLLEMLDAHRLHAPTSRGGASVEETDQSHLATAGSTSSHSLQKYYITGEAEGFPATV
# Procedure: (§4) Cell based transactivation assays were performed in CV-1 cells as described.^49 ERR activity was assayed with a GAL4 reporter construct and fusion proteins containing the ligand binding domains of human ERRα, human ERRβ and mouse ERRγ linked to the DNA binding domain of yeast GAL4. Human ERα and ERβ were examined as full-length proteins using an estrogen receptor responsive reporter construct. Reporter constructs (300 ng/10^5 cells) and cytomegalovirus-driven expression vectors (20-50 ng/10^5 cells) were added as indicated along with CMX-β-gal (500 ng/10^5 cells) as an internal control. Cells were transiently transfected by Lipofectamine as described.^56 Cells were incubated with DNA complexed liposomes for 2 hours and subsequently treated for approximately 45 hr with phenol red free DMEM FBS containing the indicated compounds. After exposure to ligand, the cells were harvested and assayed for luciferase and β-galactosidase activity. All points were assayed in triplicate and varied by less than 15%. Each experiment was repeated three or more times with similar results. Fold activation is reported.
# Human ERβ = target: T5, Human ERβ (Homo sapiens, UniProt Q92731); test: Full-length ERβ, estrogen receptor responsive reporter assay in CV-1 cells; type: cell-based; conditions: up to 3 μM
# T5 construct: Human ERα and ERβ were examined as full-length proteins using an estrogen receptor responsive reporter construct; expressed in transfected cells; host or cells: CV-1 cells, cytomegalovirus-driven expression vectors
# T5 sequence (Q92731 whole entry): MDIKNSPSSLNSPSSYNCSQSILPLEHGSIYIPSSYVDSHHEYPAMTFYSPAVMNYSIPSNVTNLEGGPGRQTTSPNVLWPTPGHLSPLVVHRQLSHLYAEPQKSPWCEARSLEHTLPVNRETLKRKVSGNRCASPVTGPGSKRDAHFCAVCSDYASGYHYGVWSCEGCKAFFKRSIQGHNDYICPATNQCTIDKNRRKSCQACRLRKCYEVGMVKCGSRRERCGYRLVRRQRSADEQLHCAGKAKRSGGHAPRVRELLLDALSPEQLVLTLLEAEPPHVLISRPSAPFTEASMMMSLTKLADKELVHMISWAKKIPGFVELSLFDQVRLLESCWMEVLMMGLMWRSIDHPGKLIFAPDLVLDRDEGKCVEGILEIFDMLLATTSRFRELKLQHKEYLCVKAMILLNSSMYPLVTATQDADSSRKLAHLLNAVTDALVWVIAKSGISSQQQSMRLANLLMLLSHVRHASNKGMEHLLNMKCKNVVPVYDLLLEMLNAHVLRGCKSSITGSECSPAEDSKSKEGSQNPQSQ
# Procedure: as §4
# ER = conditions: % of the affinity of the Z isomer of 4-OHT; cited from earlier work
# [1] = CV-1 cells co-transfected with reporter and expression vectors, human ERRβ LBD
IC50 (human ERRα) [nM],IC50 (human ERRβ; [1]) [nM],identified as (inverse agonist class / selectivity) (human ERRβ),IC50 (mouse ERRγ) [nM],SMILES,"activity on ERRγ, in words (mouse ERRγ)",further results
> 10000,210,ERRβ and ERRγ inverse agonists,290,"CC(C)/C(=C(\c1ccc(O)cc1)c1ccc(OCCN(C)C)cc1)c1ccccc1 [Compound 3a, (Z)-4-[1-(4-Dimethylaminoethoxy-phenyl)-3-methyl-2-phenyl-but-1-enyl]-phenol]",–,fold greater potency than Z-4-OHT on ERRβ (human ERRβ; compared to Z-4-OHT): 3 fold; fold greater potency than Z-4-OHT on ERRγ (mouse ERRγ; compared to Z-4-OHT): 3 fold
> 10000,600,selective inverse agonists for the ERRβ,6500,"COC(=O)CCC(=C(c1ccc(O)cc1)c1ccc(O)cc1)c1ccccc1 [Compound 1g, 5,5-Bis (4-hydroxyphenyl)-4-phenyl-pent-4-enoic acid methyl ester]",not active,"activity on ERRα, in words (human ERRα): not active"
> 10000,2250,ERRβ and ERRγ inverse agonists,2500,"CC(CO)C/C(=C(\c1ccc(O)cc1)c1ccc(OCCN(C)C)cc1)c1ccccc1 (stereo not shown) [Compound 3n, (Z)-4-{1-[4-(2-Dimethylamino-ethoxy)-phenyl]-5-hydroxy-4-methyl-2-phenyl-pent-1-enyl}-phenol]",–,–
–,–,–,–,"CCCC(=C(c1ccc(O)cc1)c1ccc(O)cc1)c1ccccc1 [Compound 1b, 1,1-Bis (4-hydroxyphenyl)-2-phenylpent-1-ene]",–,melting point: 192.7 °C
–,–,–,–,"CC/C(=C(/c1ccc(O)cc1)c1ccc(OCCN(C)C)cc1)c1ccccc1 [Compound E-4-OHT, reference compound]",much less active,"affinity for the ER relative to the Z isomer (ER): about 5%; activity on ERRβ, in words (human ERRβ): much less active"
> 10000,350,–,3500,"COC(=O)CC/C(=C(\c1ccc(O)cc1)c1ccc(OCCN(C)C)cc1)c1ccccc1 [Compound 3g, (Z)-5-[4-(2-Dimethylamino-ethoxy)-phenyl]-5-(4-hydroxyphenyl)-4-phenyl-pent-4-enoic acid methyl ester]",–,effect on ERRα transcriptional activity (human ERRα): no effect; effect on ERα transcriptional activity (Human ERα): no effect; effect on ERRγ transcriptional activity (mouse ERRγ): no effect; effect on ERβ transcriptional activity (Human ERβ): no effect
> 10000,300,selective inverse agonists for the ERRβ,5500,"COC(=O)C(C)CC(=C(c1ccc(O)cc1)c1ccc(O)cc1)c1ccccc1 (stereo not shown) [Compound 1h, 5,5-Bis (4-hydroxyphenyl)-2-methyl-4-phenyl-pent-4-enoic acid methyl ester]",not active,"activity on ERRα, in words (human ERRα): not active"

SMILES,IC50 (human ERRα) [nM],IC50 (human ERRβ; [1]) [nM],identified as (inverse agonist class / selectivity) (human ERRβ),IC50 (mouse ERRγ) [nM],"activity on ERRγ, in words (mouse ERRγ)",further results
"COC(=O)C(C)C/C(=C(\c1ccc(O)cc1)c1ccc(OCCN(C)C)cc1)c1ccccc1 (stereo not shown) [Compound 3h, (Z)-5-[4-(2-Dimethylamino-ethoxy)-phenyl]-5-(4-hydroxyphenyl)-2-methyl-4-phenyl-pent-4-enoic acid methyl ester]",> 10000,–,selective inverse agonist for the ERRβ; also recorded: ERRβ inverse agonists,2780,–,effect on ERRα transcriptional activity (human ERRα): no effect; effect on ERα transcriptional activity (Human ERα): no effect; IC50 (human ERRβ; cell-based transactivation in CV-1 cells): 50 nM; effect on ERRγ transcriptional activity (mouse ERRγ): no effect; effect on ERβ transcriptional activity (Human ERβ): no effect
"CC/C(=C(\c1ccc(O)cc1)c1ccc(OCCN(C)C)cc1)c1ccccc1 [Compound Z-4-OHT, reference compound]",> 10000,650,–,600,has the required activity; also recorded: more potent than E-4-OHT,"activity on ERRβ, in words (human ERRβ): has the required activity; also recorded: more potent than E-4-OHT"
